Experimental data from patent US9790169B2, “IDO inhibitors” (BRISTOL-MYERS SQUIBB COMPANY, priority 2015, dated 2017).

The molecules below were run against human IDO1 (Homo sapiens, UniProt P14902) (assay: Assessment of human IDO-1 inhibitory activity in HEK cells (human IDO1/HEK293 cells, kynurenine read-out with Ehrlich reagent, absorbance 490 nm)). Details: HEK Human IDO-1 cellular assay.
human IDO1, sequence (P14902 whole entry): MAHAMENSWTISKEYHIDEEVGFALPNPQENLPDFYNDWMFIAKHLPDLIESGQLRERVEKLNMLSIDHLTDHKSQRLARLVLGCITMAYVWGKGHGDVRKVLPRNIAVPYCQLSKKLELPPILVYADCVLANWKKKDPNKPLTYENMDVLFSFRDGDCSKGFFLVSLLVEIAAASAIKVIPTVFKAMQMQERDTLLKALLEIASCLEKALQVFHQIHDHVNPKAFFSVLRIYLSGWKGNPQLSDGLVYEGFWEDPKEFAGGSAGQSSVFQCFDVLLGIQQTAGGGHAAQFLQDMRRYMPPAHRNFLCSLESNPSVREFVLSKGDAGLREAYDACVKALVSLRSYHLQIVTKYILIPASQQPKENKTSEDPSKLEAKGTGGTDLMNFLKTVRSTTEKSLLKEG
Format: cell-based
Design: expressed in transfected cells
In short: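 Kynurenine output from stably IDO1-transfected HEK293 cells (10,000/well, phenol red-free RPMI, 10% FBS) after 20 h compound exposure at 37 °C. The reaction was stopped with 0.2% TCA and heated 30 min at 50 °C, then the supernatant was mixed with Ehrlich reagent and read at 490 nm. IC50 was set against DMSO and a 500 nM reference standard as 0 and 100% inhibition.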
Work on `COCC(CC(=O)O)c1cc(F)c(N(CC(C)C)CC(C)C)c(NC(=O)Nc2cncnc2)c1` (single isomer, unassigned) [Example 1196, 3-(4-(Diisobutylamino)-3-fluoro-5-(3-(pyrimidin-5-yl)ureido)phenyl)-4-methoxybutanoic acid] yielded an IC50 greater than 50 nM.
`CCC(CC(=O)O)c1ccc(N2CCC[C@H]2C(C)(C)O)c(NC(=O)Nc2ccc(OC)cc2)c1` (single isomer, unassigned) [Example 811] showed an IC50 greater than 50 nM.
`Cc1ccc(CC(=O)Nc2cc(C(CC(=O)O)C3CC3)ccc2N(CC(C)C)C2CCOCC2)cc1` (racemic) [Example 1208, (+/−)-3-Cyclopropyl-3-(4-(isobutyl(tetrahydro-2H-pyran-4-yl)amino)-3-(2-(p-tolyl)acetamido)phenyl)propanoic acid] gave an IC50 of less than 50 nM.
Molecule `CCOc1ncc(Nc2cc([C@H](CC)CC(=O)O)ccc2N(CC)C2CCCCC2)cn1` (single isomer, unassigned) [Example 287] has an IC50 of less than 5 nM.
`CCC(CC(=O)O)c1ccc(N(CC)C2CCOCC2)c(NC(=O)Nc2ccc(C)cc2)c1` (single isomer, unassigned) [Example 487 Enantiomer 1, 3-(4-(Ethyl(tetrahydro-2H-pyran-4-yl)amino)-3-(3-(p-tolyl)ureido)phenyl)pentanoic acid] was tested, and the IC50 was less than 5 nM.
Molecule `COCC(CC(=O)O)c1cc(F)c(N(CC(C)C)C2CCCCC2)c(NC(=O)Nc2ccc(C)cc2)c1` (single isomer, unassigned) [Example 1155, 3-(4-(cyclohexyl(isobutyl)amino)-3-fluoro-5-(3-(p-tolyl)ureido)phenyl)-4-methoxybutanoic acid] has an IC50 of less than 5 nM.
`CCC(CC(=O)O)c1ccc(N2CCC[C@H]2C(C)(C)F)c(NC(=O)Nc2ccc(Cl)cc2F)c1` (single isomer, unassigned) [Example 786] gave an IC50 greater than 50 nM.
In the case of `COCC(CC(=O)O)c1ccc(N(CC(C)C)C2CCCCC2)c(NC(=O)Nc2ccc(OC(F)(F)F)cc2)c1` (single isomer, unassigned) [Example 1244, 3-(4-(Cyclohexyl(isobutyl)amino)-3-(3-(4-(trifluoromethoxy)phenyl)ureido)phenyl)-4-methoxybutanoic acid], the IC50 is reported as less than 5 nM.
`CC[C@H](CC(=O)O)c1ccc(N2CCOC[C@@H]2C(C)C)c(NC(=O)Nc2ccc(Cl)cc2F)c1` (single isomer, unassigned) [Example 86] gave an IC50 of less than 50 nM.
`CC[C@@H](CC(=O)O)c1ccc(N(CC)C2CCOCC2)c(Nc2nc3cc(C)nn3cc2F)c1` (single isomer, unassigned) [Example 469] gave an IC50 greater than 50 nM.
`CC[C@H](CC(=O)O)c1ccc(N(CC)C2CCOCC2)c(Nc2ccc3nc(C)sc3c2)c1` (single isomer, unassigned) [Example 524] was tested, and the IC50 was less than 50 nM.
Work on `CC[C@@H](CC(=O)O)c1ccc(N(CC)C2CCOCC2)c(Nc2ccn3nc(C)c(F)c3c2)c1` (single isomer, unassigned) [Example 470] yielded an IC50 of less than 50 nM.
`CCN(c1ccc(C(C)CC(=O)O)cc1NC(=O)Nc1ccccc1F)C1CCOCC1` (single isomer, unassigned) [Example 640, 3-(4-(ethyl(tetrahydro-2H-pyran-4-yl)amino)-3-(3-(2-fluorophenyl)ureido)phenyl) butanoic acid] showed an IC50 greater than 50 nM.
`CCC(CC(=O)O)c1ccc(N(CCC(C)C)C2CCCCC2)c(NC(=O)Cc2ccc(Cl)cc2F)c1` (racemic) [Example 1088] showed an IC50 of less than 50 nM.
For `CCOc1ccc(Nc2cc([C@@H](CC)CC(=O)O)ccc2N(CC)C2CCOCC2)nc1` (single isomer, unassigned) [Example 482], the IC50 was less than 5 nM.
`CCOc1ccc(CC(=O)Nc2cc(C(COC)CC(=O)O)ccc2N(CC(C)C)C2CCCCC2)cc1` (single isomer, unassigned) [Example 1241, 3-(4-(Cyclohexyl(isobutyl)amino)-3-(2-(4-ethoxyphenyl)acetamido)phenyl)-4-methoxybutanoic acid] showed an IC50 of less than 50 nM.
In the case of `CCOc1ccc(Nc2cc([C@H](CC)CC(=O)O)ccc2N(CC(C)(C)O)C2CCOCC2)c(F)c1` (single isomer, unassigned) [Example 206], the IC50 is reported as less than 50 nM.
`COCC(CC(=O)O)c1cc(F)c(N(CC(C)C)CC(C)C)c(NC(=O)Cc2ccc(Cl)cc2F)c1` (single isomer, unassigned) [Example 1180, 3-(3-(2-(4-Chloro-2-fluorophenyl)acetamido)-4-(diisobutylamino)-5-fluorophenyl)-4-methoxybutanoic acid] showed an IC50 of less than 5 nM.
Work on `COCC(CC(=O)O)c1ccc(N(CC(C)C)C2CCCCC2)c(NC(=O)Nc2cc(C)on2)c1` (racemic) [Example 986, (+/−)-3-(4-(Cyclohexyl(isobutyl)amino)-3-(3-(5-methylisoxazol-3-yl)ureido)phenyl)-4-methoxybutanoic acid] yielded an IC50 of less than 50 nM.
Molecule `CCc1ccc(Nc2cc(C(CC)CC(=O)O)cc(F)c2N(CC(C)C)CC(C)C)cc1` (single isomer, unassigned) [Example 96, 3-(4-(diisobutylamino)-3-((4-ethylphenyl)amino)-5-fluorophenyl)pentanoic acid] has an IC50 of less than 50 nM.
`CCOc1ncc(Nc2cc(C(CC)CC(=O)O)ccc2N(CC2CC2)C2CCOCC2)cn1` (single isomer, unassigned) [Example 705, 3-(4-((cyclopropylmethyl) (tetrahydro-2H-pyran-4-yl)amino)-3-((2-ethoxypyrimidin-5-yl)amino)phenyl)pentanoic acid] showed an IC50 of less than 5 nM.
`CC[C@H](CC(=O)O)c1ccc(N2CCOC[C@@H]2C(C)C)c(NC(=O)Nc2ccc(C)cc2)c1` (single isomer, unassigned) [Example 85] showed an IC50 greater than 50 nM.
With `CCC(CC(=O)O)c1cc(F)c(N(CC(C)C)CC(C)C)c(Nc2ccc3nc(C)sc3c2)c1` (single isomer, unassigned) [Example 95, 3-(4-(Diisobutylamino)-3-fluoro-5-((2-methylbenzo[d]thiazol-6-yl)amino)phenyl)pentanoic acid] the IC50 was greater than 50 nM.
In the case of `CC[C@@H](CC(=O)O)c1ccc(N(CC)C2CCOCC2)c(NC(=O)Nc2cc(C)on2)c1` (single isomer, unassigned) [Example 497], the IC50 is reported as greater than 50 nM.
In the case of `CCC(CC(=O)O)c1ccc(N(CC(C)C)CC(C)C)c(NC(=O)Cc2ccc(C#N)cc2)c1` (racemic) [Example 950, (+/−)-3-(3-(2-(4-Cyanophenyl)acetamido)-4-(diisobutylamino)phenyl)pentanoic acid], the IC50 is reported as less than 5 nM.
`CCC(CC(=O)O)c1ccc(N2CCOC[C@H]2C(C)C)c(Nc2cnc(OCC3CC3)nc2)c1` (single isomer, unassigned) [Example 905] was tested, and the IC50 was greater than 50 nM.
For `CC[C@H](CC(=O)O)c1ccc(N(CC(C)(C)O)C2CCCCC2)c(Nc2ccc(C#N)cc2)c1` (single isomer, unassigned) [Example 238], the IC50 was less than 5 nM.
For `CCOc1ncc(Nc2cc([C@@H](CC)CC(=O)O)ccc2N2CCOC[C@@H]2C(C)C)cn1` (single isomer, unassigned) [Example 79], the IC50 was greater than 50 nM.
With `CCOc1ccc(NC(=O)Nc2cc(C(COC)CC(=O)O)cc(F)c2N(CC(C)C)C2CCCCC2)c(F)c1` (single isomer, unassigned) [Example 1157, 3-(4-(cyclohexyl(isobutyl)amino)-3-(3-(4-ethoxy-2-fluorophenyl)ureido)-5-fluorophenyl)-4-methoxybutanoic acid] the IC50 was less than 5 nM.
